Source: patent publication US20230099858A1, “PYRIDOPYRIMIDINE DERIVATIVES AS KRAS INHIBITORS” (BETA PHARMA, INC., priority 2020, published 2023)
Structures can show the parent of a compound that is named as a salt. Where two headings read alike, the source gives them in different places.

Target: T1, KRAS G12C (Homo sapiens, UniProt P01116, G12C)
T1 construct: aa 2-169, expressed in E. coli; His-tag (TEV cleavable) (N); purchased Reaction Biology Corporation (RBC); host or cells: E. coli
Assay: KRAS G12C/SOS1 Nucleotide Exchange Assay (SOS1-mediated Bodipy-GDP to GTP exchange)
Assay type: biochemical
Details: for IC50: substrate Bodipy-GDP/Kras G12C, 30 min pre-incubation at RT
Method: Reaction Buffer: 40 mM HEPES 7.4, 10 mM MgCl2, 1 mM DTT 0.002% Triton X100, 0.1% DMSO (final).
In addition, the final assay volume was 15 μL.
Reaction Procedure: • 1. Deliver 10 uL of 1.5× KRAS solution in freshly prepared reaction buffer to reaction wells. • 2. Deliver compounds in 100% DMSO into buffer using acoustic technology (Echo550; nanoliter range). • 3. Incubate compounds with Kras for 30 minutes at room temperature. • 4. Prepare 3× (SOS1+GTP) solution in reaction buffer. • 5. Deliver 5 μL of SOS1+GTP solution into reactions wells (deliver GTP only to column 1 for no SOS1 control). • 6.
Data Analysis: The fluorescence data was normalized using the equation below and fitted to “one phase exponential decay” equation using GraphPad prism software. The plateau was fixed to zero (use for non-covalent inhibitors) and rate ×1000 was used to calculate the IC50 values. Alternatively, the plateau was unconstrained (for covalent inhibitors) and the span value was used to calculate the IC50 values.
where Yraw is defined as fluorescence at time t, Ao is the average initial fluorescence with no SOS1, and M is the minimum fluorescence at the end of the reaction at the maximum SOS1.
The background subtracted signals (no SOS1 protein wells were used as background) were converted to % activity relative to DMSO controls. Data was analyzed using GraphPad Prism 4 with “sigmoidal dose-response (variable slope)”; 4 parameters with Hill Slope. The constraints were bottom (constant equal to 0) and top (must be less than 1).

[1] = plateau fixed to zero, rate x1000 used, read-out: IC50, Analysis Method: Rate Constant, KRAS G12C

T1 sequence (P01116 2-169 G12C): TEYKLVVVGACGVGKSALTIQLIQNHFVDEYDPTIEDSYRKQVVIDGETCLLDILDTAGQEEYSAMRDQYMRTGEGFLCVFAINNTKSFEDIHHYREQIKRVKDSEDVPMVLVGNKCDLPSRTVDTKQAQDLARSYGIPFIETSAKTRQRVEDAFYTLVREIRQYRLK

For `C=CC(=O)N1CCN(c2nc(OCC3CCCN3C)nc3nc(-c4cccc5cccc(Cl)c45)ccc23)C[C@H]1C` (stereo partly drawn) [Example 1, 1-[(2R)-4-[7-(8-Chloronaphthalen-1-yl)-2-[(1-methylpyrrolidin-2-yl)methoxy]pyrido[2,3-d]pyrimidin-4-yl]-2-methylpiperazin-1-yl]prop-2-en-1-one], which inhibition at 10 µM (span analysis, no curve fit, highest concentration tested 10 μM, read-out: inhibition, printed in place of an IC50, Analysis Method: Span, KRAS G12C) is on record?
The inhibition at 10 µM was under 65%.

What about the IC50 [1] of the same molecule?
Its IC50 is 58 nM.

`C=CC(=O)N1CCN(c2nc(OC[C@@H]3CCCN3C)nc3nc(-c4cccc5cccc(Cl)c45)ccc23)C[C@@H]1CC#N` [Example 2, 2-((S)-1-Acryloyl-4-(7-(8-chloronaphthalen-1-yl)-2-(((S)-1-methylpyrrolidin-2-yl)methoxy)pyrido[2,3-d]pyrimidin-4-yl)piperazin-2-yl)acetonitrile trifluoroacetate (1:1)] was tested. Which IC50 [1] did it give?
The IC50 was 8 nM.

What about the IC50 (plateau unconstrained, span value used (for covalent inhibitors), read-out: IC50, Analysis Method: Span, KRAS G12C) of the same molecule?
The IC50 was 25 nM.
